{
  "source": "paper PMC8617681",
  "about": "(Pharmaceuticals, 2021)",
  "key": {"[1]": {"target": "T1, human OATP1A2 (Homo sapiens, UniProt P46721)", "T1 construct": "Werner Siegmund and Dr. Markus Keiser (University of Greifswald); host or cells: HEK293", "T1 sequence (P46721 1-670)": "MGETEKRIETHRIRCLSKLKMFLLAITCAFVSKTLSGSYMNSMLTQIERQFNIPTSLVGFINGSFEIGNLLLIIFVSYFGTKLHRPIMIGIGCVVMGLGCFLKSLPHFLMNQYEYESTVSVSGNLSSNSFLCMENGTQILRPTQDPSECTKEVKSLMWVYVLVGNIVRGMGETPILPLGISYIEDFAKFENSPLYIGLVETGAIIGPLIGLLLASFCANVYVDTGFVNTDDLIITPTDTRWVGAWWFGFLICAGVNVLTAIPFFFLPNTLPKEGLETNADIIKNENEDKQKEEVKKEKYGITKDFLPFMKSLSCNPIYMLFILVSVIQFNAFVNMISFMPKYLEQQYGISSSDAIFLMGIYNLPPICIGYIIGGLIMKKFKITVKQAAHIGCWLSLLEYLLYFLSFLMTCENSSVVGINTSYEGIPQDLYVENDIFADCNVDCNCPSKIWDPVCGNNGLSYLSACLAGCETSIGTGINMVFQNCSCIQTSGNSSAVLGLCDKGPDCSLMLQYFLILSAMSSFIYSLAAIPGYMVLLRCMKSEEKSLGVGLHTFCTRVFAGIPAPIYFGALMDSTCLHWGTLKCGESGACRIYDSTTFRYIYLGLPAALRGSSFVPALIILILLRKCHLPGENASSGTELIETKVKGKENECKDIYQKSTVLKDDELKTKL", "experiment": "Cellular uptake in OATP1A2-overexpressing HEK293 cells", "format": "in vitro ADME", "details": "0.2 µM, 2.5 min incubation, HEK293 OATP1A2, positive control", "experimental": "(§1) HEK293 cells, vector-transfected or human (h)SLCO1A2, hSLCO1B1 or hSLCO1B3 cDNA-transfected were kind gifts from Prof. Werner Siegmund and Dr. Markus Keiser (University of Greifswald, Greifswald, Germany). All the HEK293 cell lines were maintained in DMEM supplemented with 10% (v/v) FBS, 1% penicillin–streptomycin mix at 37 °C in 5% (v/v) CO2 and 500 μg/mL G418. Cells were first seeded in 12-well plates [coated with 50 mg/L poly (l-lysine) and 50 mg/L poly (l-ornithine)] at a density of 1.0 × 10^5 cells/well. For the uptake study, in order to induce the expression of OATP transporters, the cell culture medium was replaced with culture medium supplemented with 5 mM sodium butyrate 24 h before performing the uptake assay.\n(§2) The uptake transport study was performed as described previously. […] The Krebs–Henseleit solution was prepared from Krebs–Henseleit-buffer modified powder and supplemented with 25 mM NaHCO3 and 2.5 mM CaCl2 adjusted to pH 6.4 with 1 M HCL. At 2.5 min, the incubation buffer was removed, and uptake was terminated by adding 1 mL of ice-cold Krebs–Henseleit buffer, followed by two times washing with 1 mL of ice-cold Krebs–Henseleit buffer. […] The cellular protein amount was determined by the Bradford method using 10 μL of the cell lysates with bovine serum albumin as a standard."}, "[2]": {"target": "T2, human OATP1B3 (Homo sapiens, UniProt Q9NPD5)", "T2 construct": "Werner Siegmund and Dr. Markus Keiser (University of Greifswald); host or cells: HEK293", "T2 sequence (Q9NPD5 1-702)": "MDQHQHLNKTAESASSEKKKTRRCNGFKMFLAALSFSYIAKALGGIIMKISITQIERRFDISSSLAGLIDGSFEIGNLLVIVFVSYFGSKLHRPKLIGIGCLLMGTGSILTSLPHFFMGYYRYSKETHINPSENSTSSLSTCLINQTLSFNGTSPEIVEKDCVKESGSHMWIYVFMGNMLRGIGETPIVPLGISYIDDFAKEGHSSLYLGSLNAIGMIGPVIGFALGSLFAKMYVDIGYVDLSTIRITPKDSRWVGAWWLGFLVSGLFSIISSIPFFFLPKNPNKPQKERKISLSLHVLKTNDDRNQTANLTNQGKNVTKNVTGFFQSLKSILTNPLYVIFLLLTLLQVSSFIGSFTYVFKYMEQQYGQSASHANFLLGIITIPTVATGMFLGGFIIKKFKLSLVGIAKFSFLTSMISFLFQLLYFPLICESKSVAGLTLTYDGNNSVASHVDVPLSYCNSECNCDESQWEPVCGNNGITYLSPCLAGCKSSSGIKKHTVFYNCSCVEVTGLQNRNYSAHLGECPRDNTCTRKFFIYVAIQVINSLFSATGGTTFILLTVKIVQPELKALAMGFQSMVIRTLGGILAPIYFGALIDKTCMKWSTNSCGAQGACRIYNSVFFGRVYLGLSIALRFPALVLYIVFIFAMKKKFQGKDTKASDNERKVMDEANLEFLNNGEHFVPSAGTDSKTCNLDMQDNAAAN", "experiment": "Cellular uptake in OATP1B3-overexpressing HEK293 cells", "format": "in vitro ADME", "details": "0.2 µM, 2.5 min incubation, HEK293 OATP1B3, positive control", "experimental": "as §1, §2"}, "[3]": {"target": "T3, human OATP1B1 (Homo sapiens, UniProt Q9Y6L6)", "T3 construct": "Werner Siegmund and Dr. Markus Keiser (University of Greifswald); host or cells: HEK293", "T3 sequence (Q9Y6L6 1-691)": "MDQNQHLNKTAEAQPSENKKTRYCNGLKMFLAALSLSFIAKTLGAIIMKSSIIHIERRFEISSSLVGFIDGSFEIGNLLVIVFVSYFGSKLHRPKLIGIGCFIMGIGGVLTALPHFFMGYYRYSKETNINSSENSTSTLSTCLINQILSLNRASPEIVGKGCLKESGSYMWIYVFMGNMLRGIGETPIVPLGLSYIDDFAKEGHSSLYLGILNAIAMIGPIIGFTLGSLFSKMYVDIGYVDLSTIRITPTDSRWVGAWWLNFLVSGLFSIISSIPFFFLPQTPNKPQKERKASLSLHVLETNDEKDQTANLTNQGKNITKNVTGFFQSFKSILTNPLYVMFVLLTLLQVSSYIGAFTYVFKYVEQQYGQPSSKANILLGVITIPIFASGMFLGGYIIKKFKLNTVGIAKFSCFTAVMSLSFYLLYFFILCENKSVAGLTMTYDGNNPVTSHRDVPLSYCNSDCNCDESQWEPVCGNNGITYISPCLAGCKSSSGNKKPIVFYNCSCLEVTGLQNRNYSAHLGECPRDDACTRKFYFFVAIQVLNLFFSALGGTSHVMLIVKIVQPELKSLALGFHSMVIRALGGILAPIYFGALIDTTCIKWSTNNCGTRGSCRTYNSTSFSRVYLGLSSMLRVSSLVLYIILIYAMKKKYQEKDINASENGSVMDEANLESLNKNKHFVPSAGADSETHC", "experiment": "Cellular uptake in OATP1B1-overexpressing HEK293 cells", "format": "in vitro ADME", "details": "0.2 µM, 2.5 min incubation, HEK293 OATP1B1, positive control", "experimental": "as §1, §2"}, "[4]": {"parameters": "method as in PMID 30253203", "details": "oral brigatinib, Abcb1a/1b;Abcg2-/- mice; cited from earlier work"}, "[5]": {"details": "oral, mice; cited from earlier work"}},
  "note": "Entries after “also recorded” stand apart in the source; their conditions may differ.",
  "data": [
    {"smiles": "CC(C)c1nc(N(C)S(C)(=O)=O)nc(-c2ccc(F)cc2)c1/C=C/[C@@H](O)C[C@@H](O)CC(=O)O", "note": "[Rosuvastatin]", "values": [
      {"measurement": "uptake compared to vector control cells", "setting": "[1]", "result": "efficiently taken up"},
      {"measurement": "uptake compared to vector control cells", "setting": "[2]", "result": "efficiently taken up"},
      {"measurement": "uptake compared to vector control cells", "setting": "[3]", "result": "efficiently taken up"}
    ]},
    {"smiles": "COc1cc(N2CCC(N3CCN(C)CC3)CC2)ccc1Nc1ncc(Cl)c(Nc2ccccc2P(C)(C)=O)n1", "note": "[brigatinib]", "values": [
      {"measurement": "acute toxicity", "setting": "[4]", "result": "severe and even lethal acute toxicity; also recorded: sometimes severe and lethal toxicity"}
    ]},
    {"smiles": "COc1cc2c(cc1OC)CN(CCc1ccc(NC(=O)c3cccc4c(=O)c5cccc(OC)c5[nH]c34)cc1)CC2", "note": "[elacridar]", "values": [
      {"measurement": "Tmax", "setting": "[5]", "result": "about 4 h"}
    ]}
  ]
}
